These results are taken from patent publication US7183075B2, “Purified and isolated potassium-chloride cotransporter nucleic acids and polypeptides and therapeutic and screening methods using same” (Vanderbilt University, priority 2000, dated 2007).

One assay has as its target T1, hKCC2 (Homo sapiens, UniProt Q9H2X9, L143X/L381X/L939X).
T1 construct: expressed in transfected cells; host or cells: Xenopus laevis oocytes injected with 25 ng hKCC2 cRNA
T1 sequence (Q9H2X9 with tags, fused parts or gaps isoform Q9H2X9-2 L120X/L358X/L916X limits assumed): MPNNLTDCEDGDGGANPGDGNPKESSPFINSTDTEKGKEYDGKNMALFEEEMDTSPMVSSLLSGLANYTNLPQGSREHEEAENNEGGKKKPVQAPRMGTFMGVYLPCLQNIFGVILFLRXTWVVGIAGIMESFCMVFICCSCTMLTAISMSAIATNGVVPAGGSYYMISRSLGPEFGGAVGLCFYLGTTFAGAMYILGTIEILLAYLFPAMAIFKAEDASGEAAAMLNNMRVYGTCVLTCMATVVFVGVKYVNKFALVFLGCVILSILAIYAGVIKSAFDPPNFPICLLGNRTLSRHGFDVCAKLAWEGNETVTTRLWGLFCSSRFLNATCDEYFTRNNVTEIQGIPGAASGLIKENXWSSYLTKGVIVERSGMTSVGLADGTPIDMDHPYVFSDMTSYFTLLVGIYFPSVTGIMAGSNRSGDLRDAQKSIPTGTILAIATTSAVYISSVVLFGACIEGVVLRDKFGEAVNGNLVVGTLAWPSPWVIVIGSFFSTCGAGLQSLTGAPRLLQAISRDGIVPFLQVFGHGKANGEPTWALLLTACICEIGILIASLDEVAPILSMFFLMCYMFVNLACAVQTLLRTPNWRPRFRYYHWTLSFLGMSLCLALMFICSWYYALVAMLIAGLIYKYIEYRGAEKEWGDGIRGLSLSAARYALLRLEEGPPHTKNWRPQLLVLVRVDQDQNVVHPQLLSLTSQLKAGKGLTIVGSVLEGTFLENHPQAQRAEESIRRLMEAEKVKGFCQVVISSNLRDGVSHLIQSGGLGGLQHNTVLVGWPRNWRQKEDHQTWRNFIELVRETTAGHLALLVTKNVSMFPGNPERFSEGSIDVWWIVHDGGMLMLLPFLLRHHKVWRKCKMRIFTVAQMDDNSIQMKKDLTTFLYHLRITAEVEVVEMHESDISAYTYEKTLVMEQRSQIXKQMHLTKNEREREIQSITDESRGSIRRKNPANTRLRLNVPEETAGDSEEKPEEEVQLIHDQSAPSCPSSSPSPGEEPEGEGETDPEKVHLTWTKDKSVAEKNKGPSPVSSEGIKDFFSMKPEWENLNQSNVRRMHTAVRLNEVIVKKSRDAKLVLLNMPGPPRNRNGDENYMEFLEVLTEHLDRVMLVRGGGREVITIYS
The experiment in a line: 86Rb+ uptake (K+-Cl- cotransport) in Xenopus oocytes injected with hKCC2 cRNA. It counts as cell-based. As to the method: Oocytes were surgically collected from anesthetized female Xenopus adults under 0.17% tricaine and incubated for 1 hour with vigorous shaking in frog Ringer ND96 (96 mM sodium chloride, 2 mM potassium chloride, 1.8 mM calcium chloride, 1.0 mM magnesium chloride, and 5 mM Hepes/Tris, pH 7.4) in the presence of 2 mg/ml collagenase B. Oocytes were then washed four times in ND96, manually defolliculated, and incubated overnight in ND96 at 18° C. On the next day, defolliculated stage V–VI oocytes were injected with 50 nl of water or a solution containing cRNA at a concentration of 0.25–0.5 μg/μl (25 ng/oocyte). Oocytes were incubated at 17–18° C. in ND96 (96 mM sodium chloride, 2 mM potassium chloride, 1.8 mM calcium chloride, 1.0 mM magnesium chloride, and 5 mM Hepes/Tris, pH 7.4), supplemented with 2.5 mM sodium pyruvate and 5 mg/100 ml gentamicin, for 3–4 days. The incubation medium was changed every 24 hours. On the day of the experiment, oocytes were switched to Cl^−-free ND96 (96 mM Na^+ Na^+ isethionate, 2 mM K^+ gluconate, 6 mM Ca^2+ gluconate, 1 mM Mg^2+ gluconate, 5 mM Hepes, 2.5 mM sodium pyruvate, 5 mg/100 ml gentamicin, pH 7.4) for 2 hours prior to the uptake assay.
K^+—Cl^− cotransport was assessed by measuring tracer ^86Rb^+ uptake (NEN® Life Science Products of Boston, Mass.) in experimental groups of at least 15 oocytes. […] All uptake solutions also contained 1.8 mM CaCl2, 1 mM MgCl2, 5 mM Hepes, pH 7.4, and were supplemented with 1 mM ouabain and […] ^86Rb^+. Isotonic conditions were generated by supplementing the same solutions with 3.5 g/100 ml sucrose to reach isosmolar conditions for oocytes (˜210 mOsm/kg). Ouabain was added to prevent ^86Rb^+ uptake via the Na^+—K^+-ATPase. The absence of extracellular Na^+ and the hypotonicity of the uptake medium prevented ^86Rb^+ uptake via the endogenous Na^+—K^+-2Cl^− cotransporter that is present in oocytes (Gamba et al. (1994) J Biol Chem 269:17713–17722).
All uptake assays were performed at 32° C. At the end of the uptake period, oocytes were washed five times in ice-cold uptake solution without isotope to remove extracellular fluid tracer. Oocytes were dissolved in 10% SDS, and tracer activity was determined for each oocyte by β-scintillation counting.
Uptake assays to detect K^+—Cl^− cotransport mediated by a hKCC2 were performed using similar methods.
FIG. 10 presents line graphs depicting concentration dependence of K^+—Cl^− cotransport mediated by hKCC2, which was used to calculate ion affinities using analogous methods. Uptake assays were simultaneously assessed in water-injected oocytes. To determine ^86Rb^+ uptake due to KCC2, the mean values for water groups were subtracted from the mean values for corresponding KCC2 groups. Uptake assays in hypotonic media were performed for 60 minutes with a fixed concentration of K^+or Cl^− at 50 mM. The concentration of the counterion was varied from 0 to 50 mM as indicated.

Assay [1] concerns Na^+—K^+-2Cl^− cotransport activity of Xenopus oocytes. The experiment in a line: Endogenous Na+-K+-2Cl- cotransport activity of Xenopus oocytes. It counts as cell-based. The note with it: 100 μM DIOA. As to the method:
The sensitivity of the KCCs to other inhibitors of red cell K^+—Cl^− cotransport was also assessed in oocytes injected with KCC4 or KCC1. FIG. 18 illustrates the effect of 100 μM DIDS and 100 μM DIOA on the ^86Rb^+ uptake induced by the microinjection of each KCC cRNA. The effect of extracellular K^+ concentration on the inhibition of cotransport was very dramatic for DIDS. […] However, inhibition of KCC4 was higher when extracellular K^+ was lower, although this was not the case for KCC1. DIOA is reportedly specific for K^+—Cl^− cotransport over Na^+—K^+-2Cl^− cotransport (Garay et al. (1988) Mol Pharmacol 33:696–701), and the same concentration of DIOA had no effect on the function of the Na^+—K^+-2Cl^− cotransport activity of Xenopus oocytes (Gamba et al. (1994) J Biol Chem 269: 17713–17722).

[2] abbreviates: hKCC2, hypotonic, counterion fixed at 50 mM, 86Rb+ as substitute for K+, read-out: Km (Michaelis-Menten fit).

Where two headings read alike, the source gives them in different places.

For orientation: Km means the substrate concentration at which the rate is half of its maximum. Turning to `[K+]` [Potassium], the Km came out at 9.3 mM on hKCC2 (KCC2, read-out: Potassium Km) and 9.3 mM on hKCC2 (setting [2]).

Consider HgCl2 [Hg—Cl2], for which the “response of KCC2 to mercury” value at hKCC2 (50 μM HgCl2, hypotonic) is “sensitive”.

Regarding `Cl` [Chloride], the Km on hKCC2 (KCC2, read-out: Chloride Km) came out at 6.3 mM; on hKCC2 (setting [2]) it was 6.31 mM.

As usually defined, the IC50 is the point on the concentration scale where inhibition reaches its midpoint. On to `NS(=O)(=O)c1cc(C(=O)O)c(NCc2ccco2)cc1Cl` [furosemide], for which, at hKCC2 (KCC2), the IC50 was determined as 90 µM.

For the compound `CCCCC1(C2CCCC2)Cc2cc(OCC(=O)O)c(Cl)c(Cl)c2C1=O` (stereo not shown) [DIOA], the “effect on Na+-K+-2Cl- cotransport activity of Xenopus oocytes” value in assay [1] was “no effect”.
